Measurements as given in US20030049709A1, “Programmed cell death and Ich-3” (priority 1996, published 2003).

Assays:
[1] = molecular target: ICH-3 protein (mouse) (mouse) (UniProt P70343)
embryonic fibroblasts = experiment: Granzyme/perforin induced apoptosis of embryonic fibroblasts (Hoechst dye); format: cell-based, mice; settings: Ich-3−/− EF cells; up to 0.8 μg/ml granzyme with 50 ng/ml perforin
Method: FIGS. 9A-9B. Ich-3 deficient EF cells are resistant to Granzyme B and Granzyme 3 induced apoptosis. Embryonic fibroblasts from Ich-3−/− and wild type controls were treated with varying concentrations of granzyme B (FIG. 9A) or granzyme 3 (FIG. 9B) in the presence of a constant amount of perforin (50 ng/ml) for a period of 2 and 8 hrs, respectively. The percentage of apoptosis cells was determined from cell counts after staining with Hoechst dye (Chen et al., 1995). Control wells contained cells alone incubated with or without perforin. Data points represent the percentage of apoptotic cells for a particular dilution of granzyme minus the percentage of apoptotic cells observed in medium alone.
Granule serine protease (GraB) derived from cytotoxic T lymphocytes (CTL) can induce apoptosis in the presence of the pore forming protein perforin (Shi et al., J. Exp. Med. 176:1521-1529 (1992)). To determine the role of ICH-3 in apoptosis induced by GraB, the ability of Ich-3−/− embryonic fibroblasts (EF) to undergo apoptosis following treatment with GraB or Granzyme 3 (Gra3) and perforin was examined. Embryonic fibroblasts from Ich-3−/− mice and wild type littermate controls were treated with varying concentrations of GraB or Gra3 in the presence of a constant amount of perforin (50 ng/ml) for a period of 2 and 8 hrs, respectively.

His-tagged ICH-3 protein = molecular target: T1, His-tagged ICH-3 protein (Mus musculus, UniProt P70343); experiment: In vitro cleavage assay of ICH-3 by GraB (Western blot); format: biochemical; settings: 20 ng GraB, 30° C., 1 hour, 10 mM DTT
T1 construct: An EcoRI fragment from the cDNA clone BSNO12 encoding the full length Ich-3 was subdloned into EcoRI site of pTrcHis (Invitrogen); polyhistidine (six histidines) (N); made in house; host or cells: E. coli
T1 sequence (P70343 81-373): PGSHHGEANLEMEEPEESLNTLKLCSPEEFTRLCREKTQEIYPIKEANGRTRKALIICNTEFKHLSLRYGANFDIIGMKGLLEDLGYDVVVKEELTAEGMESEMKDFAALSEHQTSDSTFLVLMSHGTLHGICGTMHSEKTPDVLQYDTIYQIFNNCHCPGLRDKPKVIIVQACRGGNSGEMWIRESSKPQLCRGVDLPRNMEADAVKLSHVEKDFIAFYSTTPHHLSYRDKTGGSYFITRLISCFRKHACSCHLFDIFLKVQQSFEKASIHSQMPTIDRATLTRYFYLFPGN
Method: FIG. 5. Cleavage of ICH-3 protein by granzyme B. 10 μg His-tagged ICH-3 protein purified from E. coli was incubated with 20 ng of GraB in the presence of 10 mM DTT at 30° C. for 1 hour. The result was detected by Western blotting with a peptide antibody against p20 portion of ICH-3.
For in vitro cleavage of ICH-3 by GraB, […] purified His-tagged ICH-3 protein was incubated with 20 ng of GraB in the presence of 50 mM Tris-HCl, pH 7.5, 0.5 mM EDTA, 0.5 mM Sucrose and 10 mM DTT in a total volume of 10 μl. The mixture was incubated at 30° C. for 1 hour and the cleavage was detected by Western blotting with a peptide antibody against the p20 portion of ICH-3.
To examine whether GraB can cleave ICH-3, a His-tagged ICH-3 protein was expressed in E. coli. His-tagged ICH-3 protein purified from bacteria was mixed with or without active GraB and incubated at 30° C. for 1 hour. The cleavage products were identified by Western blot with a peptide antibodies against the p20 or a monoclonal antibody against p10 portion of ICH-3. As show in FIG. 5, the fulll length ICH-3 band disappeared after incubation with GraB: a new 20 kDa band appeared which is detected by an anti-ICH-3 p20 antibody and a new 10 kDa band which is recognized by a monoclonal antibody against p10 of ICH-3. […] Fragments around 30 kDa are the predicted sizes of the cleavages at Asp 59 and Asp 80. […]

thymocytes = experiment: Thymocyte apoptosis under other apoptotic stimuli; format: cell-based, mice; settings: Ich-3 mutant thymocytes; dexamethasone 1 μM; 10 nM PMA and 500 nM Ca2+ ionophore
Method: Thymocytes are sensitive to several apoptotic stimuli such as irradiation and dexamethasone (Cohen, J. J., et al., Annu. Rev. Immunol. 10:267-293 (1992)). To determine if apoptosis of thymocytes is affected by a mutation in the Ich-3 locus, Ich-3−/− thymocytes were examined for defects in apoptosis using a variety of apoptotic induction signals. Thymocytes isolated from 6-7 week old, wild-type and Ich-3 mutant mice were treated with 500 rads of y-irtadiation, or dexamethasone (1(IM, or 10 nM phorbol myristate acetate (PMA) and 500 nM Ca^2+ ionophore, and cell viability was examined 10 hr or 24 hr after treatment by using FCAS analysis after staining with propidine iodine. (Schwartz, et al., “Cell Death—Methods in Cell Biology.” vol. 46, Academic Press).

[2] = test system: apoptosis in an cell-free system; settings: read-out: concentration to cause 50% inhibition of apoptosis; cited from earlier work
[3] = test system: poly(ADP-ribose) polymerase (PARP) cleavage; settings: cited from earlier work

Molecule: granzyme B (enzyme)
- percentage of apoptotic embryonic fibroblasts (Hoechst dye) after GraB and perforin [1]: 40%

Molecule: GraB: granule serine protease required for the cytotoxic activity of lymphocytes
- apoptosis of EF cells (embryonic fibroblasts): only baseline levels of apoptosis
- cleavage of ICH-3 (His-tagged ICH-3 protein): can cleave ICH-3 into p20 and p10

Molecule: phorbol myristate acetate [PMA and Ca^2+ ionophore]
- resistance of thymocytes to induced apoptosis (thymocytes): not resistant

Molecule: Ac-DEVD-CHO
- IC50 [2]: 1000 nM
- dose inhibiting PARP cleavage [3]: 1 nM

B1: Gra3: Granzyme 3 (protein, UniProt P49863 27-264, looked up)
Granzyme K: IIGGKEVSPHSRPFMASIQYGGHHVCGGVLIDPQWVLTAAHCQYRFTKGQSPTVVLGAHSLSKNEASKQTLEIKKFIPFSRVTSDPQSNDIMLVKLQTAAKLNKHVKMLHIRSKTSLRSGTKCKVTGWGATDPDSLRPSDTLREVTVTVLSRKLCNSQSYYNGDPFITKDMVCAGDAKGQKDSCKGDSGGPLICKGVFHAIVSGGHECGVATKPGIYTLLTKKYQTWIKSNLVPPHTN
- apoptosis of EF cells (embryonic fibroblasts): only baseline levels of apoptosis
